# Like-named read-outs stand apart in the source and are kept apart here.
# How the values were obtained:
# [1] = test system: Crabgrass (Digitaria sanguinalis L.); experiment: Test Example 7: pot test, Example 8 suspension concentrate with Frigate; assay type: in vivo; settings: 20 days after treatment, duplicate; for inhibition at 5 g/ha / inhibition at 10 g/ha / inhibition at 20 g/ha / inhibition at 40 g/ha: Digitaria sanguinalis, 480 h, read-out: Growth Inhibition (%) of Crabgrass; for inhibition at 20 g/ha: Compound A 20 g/ha; for inhibition at 40 g/ha: Compound A 40 g/ha
# Protocol: (§1) Crabgrass (Digitaria sanguinalis L.) seeds were sown in 1/1,000,000-hectare pots filled with upland soil and arranged in a duplicate system. When the crabgrass plants grew to a 3- to 3.3-leaf stage, the oil-based suspension concentrate obtained in Example 8 was diluted with 500 liters/hectare of water containing a predetermined amount of Frigate and was applied foliarly to the plants with a small spray gun.
# Twenty days after treatment, the growth inhibition of plants was evaluated with visual observation in the same manner as in Teat Example 1 and are shown in Table 7.
# [2] = test system: Crabgrass (Digitaria sanginalis L.); experiment: Test Example 11: pot test, Example 8 suspension concentrate with kinds of EFAS; assay type: in vivo; settings: EFAS: No addition, 23 days after treatment, duplicate
# Protocol: as §1, with “sanginalis” for “sanguinalis”, “4-leaf” for “3- to 3.3-leaf”, “200” for “500”, “an ethoxylated fatty amine type surfactant (EFAS)” for “Frigate”
# Twenty three days after treatment, the growth inhibition of plants was evaluated with visual observation in the same manner as in Test Example 1 and are shown in Table 11.
# [3] = Frigate 0.125 % by volume, Compound A 5 g/ha
compound,measurement,setting,value
"COc1cc(OC)nc(NC(=O)NS(=O)(=O)c2ncccc2C(=O)N(C)C)n1 [Compound A, N-[(4,6-dimethoxypyrimidin-2-yl)aminocarbonyl]-3-dimethylaminocarbonyl-2-pyridinesulfonamide]",inhibition at 5 g/ha,[1]; [3],40%
same,inhibition at 10 g/ha,"[1]; Frigate 0.125 % by volume, Compound A 10 g/ha",85%
same,inhibition at 20 g/ha,[1]; Frigate 0.125 % by volume,90%
same,inhibition at 40 g/ha,[1]; Frigate 0.125 % by volume,100%
same,inhibition at 5 g/ha,"[1]; Frigate 0.25 % by volume, Compound A 5 g/ha",50%
same,inhibition at 10 g/ha,"[1]; Frigate 0.25 % by volume, Compound A 10 g/ha",95%
same,inhibition at 20 g/ha,[1]; Frigate 0.25 % by volume,100%
same,inhibition at 40 g/ha,[1]; Frigate 0.25 % by volume,100%
same,inhibition at 5 g/ha,"[1]; Frigate 0.5 % by volume, Compound A 5 g/ha",75%
same,inhibition at 10 g/ha,"[1]; Frigate 0.5 % by volume, Compound A 10 g/ha",95%
same,inhibition at 20 g/ha,[1]; Frigate 0.5 % by volume,100%
same,inhibition at 40 g/ha,[1]; Frigate 0.5 % by volume,98%
same,inhibition at 5 g/ha,"[1]; Frigate: No addition, Compound A 5 g/ha",0%
same,inhibition at 20 g/ha,[1]; Frigate: No addition,70%
same,inhibition at 40 g/ha,[1]; Frigate: No addition,85%
same,Growth Inhibition (%) of Crabgrass,[1]; [3],45%
same,Growth Inhibition (%) of Crabgrass,"[1]; Frigate: No addition, Compound A 10 g/ha",5%
same,inhibition at 10 g/ha,"[2]; Digitaria, 552 h, Compound A 10 g/ha, read-out: Growth Inhibition (%) of Crabgrass",70%
same,inhibition at 20 g/ha,"[2]; Digitaria, 552 h, Compound A 20 g/ha, read-out: Growth Inhibition (%) of Crabgrass",98%
same,inhibition at 40 g/ha,"[2]; Digitaria, 552 h, Compound A 40 g/ha, read-out: Growth Inhibition (%) of Crabgrass",98%
same,Growth Inhibition (%) of Crabgrass,[2]; Compound A 10 g/ha,55%
same,Growth Inhibition (%) of Crabgrass,[2]; Compound A 20 g/ha,90%
